Structures are written as SMILES.

This note sets out measurements from patent publication US12398141B2 (SHANGHAI SYNERGY PHARMACEUTICAL SCIENCES CO., LTD, priority 2019, dated 2025).

One assay deals with JAK3 (Homo sapiens (Human), UniProt P52333). Description: JAK3 LANCE Ultra kinase assay. The note with it: 4 uM ATP. Type of assay: biochemical.
The target in a further assay is JAK2 (Homo sapiens (Human), UniProt O60674). The assay can be described thus: JAK2 LANCE Ultra kinase assay. Type of assay: biochemical. The note with it: 12 uM ATP.
JAK2, sequence (O60674 whole entry): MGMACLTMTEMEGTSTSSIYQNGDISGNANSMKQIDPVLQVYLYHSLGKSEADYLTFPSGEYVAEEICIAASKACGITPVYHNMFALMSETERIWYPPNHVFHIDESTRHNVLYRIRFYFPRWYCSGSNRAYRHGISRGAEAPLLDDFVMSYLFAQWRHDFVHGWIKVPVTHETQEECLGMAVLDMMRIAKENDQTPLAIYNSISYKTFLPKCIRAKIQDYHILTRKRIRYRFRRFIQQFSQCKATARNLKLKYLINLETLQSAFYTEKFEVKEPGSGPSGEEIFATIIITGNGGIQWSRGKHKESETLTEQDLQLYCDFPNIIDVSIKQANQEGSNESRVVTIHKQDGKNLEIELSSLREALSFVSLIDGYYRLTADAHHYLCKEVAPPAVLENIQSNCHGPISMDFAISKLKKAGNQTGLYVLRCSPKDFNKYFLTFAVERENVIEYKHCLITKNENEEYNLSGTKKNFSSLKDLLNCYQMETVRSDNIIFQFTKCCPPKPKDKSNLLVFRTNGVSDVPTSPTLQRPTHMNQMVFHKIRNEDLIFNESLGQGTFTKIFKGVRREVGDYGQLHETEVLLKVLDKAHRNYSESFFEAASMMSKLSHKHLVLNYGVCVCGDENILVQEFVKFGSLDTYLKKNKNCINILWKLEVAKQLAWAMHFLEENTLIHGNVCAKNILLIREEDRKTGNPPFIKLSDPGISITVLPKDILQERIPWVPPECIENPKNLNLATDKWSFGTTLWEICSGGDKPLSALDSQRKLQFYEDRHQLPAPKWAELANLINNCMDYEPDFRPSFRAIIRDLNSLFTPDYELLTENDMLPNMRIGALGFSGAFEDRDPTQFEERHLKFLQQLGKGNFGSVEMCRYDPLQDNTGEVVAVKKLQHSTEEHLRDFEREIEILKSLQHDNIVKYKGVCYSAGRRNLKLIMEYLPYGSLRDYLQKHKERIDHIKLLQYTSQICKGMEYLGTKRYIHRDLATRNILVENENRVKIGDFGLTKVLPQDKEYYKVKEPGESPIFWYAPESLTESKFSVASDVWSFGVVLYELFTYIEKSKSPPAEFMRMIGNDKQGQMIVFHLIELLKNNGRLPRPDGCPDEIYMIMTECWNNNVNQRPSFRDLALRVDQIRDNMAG
The next assay deals with JAK1 (Homo sapiens (Human), UniProt P23458). Description: JAK1 LANCE Ultra kinase assay. Type of assay: biochemical. The note with it: for IC50: 38 uM ATP; for JAK2/JAK1: ratio of IC50 JAK2 to IC50 JAK1. The gist of the method:
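JAK1 preincubated with compound 10 min at room temperature, then ULight-JAK-1 peptide/ATP added for 90 min at room temperature; stopped with EDTA, Eu-W1024 anti-phosphotyrosine TR-FRET read after 60 min. Inhibition normalised to DMSO and blank wells; IC50 from curve fit.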

For the next assay, the system named is TF-1 cell. Description: TF-1 cell proliferation test. Type of assay: cell-based. The note with it: Homo sapiens, 72 h. As to the method:
Inhibiting test of the compounds of the invention on proliferation of Blast T cell and TF-1 cell (American type culture collection) was carried out by the following method. The tested compounds […], and […] were dissolved in dimethyl sulfoxide from 0.0006 to 10 μM in quadruplicate dilutions. […] The luminescence value was read on Microplate Reader (Molecular Device). […] The IC50 values of the corresponding compounds were then obtained by fitting by using the XLFit fitting tool in excel.

The test system of another assay is Blast T cell. Description: Cell proliferation test of IL-2 stimulated Blast T cell. Type of assay: cell-based. To be noted: Homo sapiens; IL-2 stimulated Blast T cell proliferation, 72 hours. The protocol: Inhibiting test of the compounds of the invention on proliferation of Blast T cell and TF-1 cell (American type culture collection) was carried out by the following method. The tested compounds […], and […] were dissolved in dimethyl sulfoxide from 0.0006 to 10 μM in quadruplicate dilutions. […] 10 μg/ml […] was added to stimulate and obtain cells with a density of 2×10^6/mL, which were incubated for 3 days. The cells were washed with phosphate buffer for three times and IL-2 (100 u/ml) was added to stimulate for 1 week. Cells were suspended using the culture medium and seeded at 5×10^4 cell/well density into 96-well plates, and incubated for 1 h with the prepared test compound or DMSO control at various concentrations from 0.0006 to 10 μM diluted by 4-fold volume. After incubation with 20 u/ml of IL-2 (50 μl/well without reference well) for 72 hours, Celltiter Glo® reagent (Promega, G7571) was added and mixed for 5 minutes, then incubated for 30 minutes at room temperature. The luminescence value was read on SpectraMax L (Molecular Device). […] The IC50 values of the corresponding compounds were then obtained by fitting by using the XLFit fitting tool in excel.

JAK3, sequence (P52333 whole entry): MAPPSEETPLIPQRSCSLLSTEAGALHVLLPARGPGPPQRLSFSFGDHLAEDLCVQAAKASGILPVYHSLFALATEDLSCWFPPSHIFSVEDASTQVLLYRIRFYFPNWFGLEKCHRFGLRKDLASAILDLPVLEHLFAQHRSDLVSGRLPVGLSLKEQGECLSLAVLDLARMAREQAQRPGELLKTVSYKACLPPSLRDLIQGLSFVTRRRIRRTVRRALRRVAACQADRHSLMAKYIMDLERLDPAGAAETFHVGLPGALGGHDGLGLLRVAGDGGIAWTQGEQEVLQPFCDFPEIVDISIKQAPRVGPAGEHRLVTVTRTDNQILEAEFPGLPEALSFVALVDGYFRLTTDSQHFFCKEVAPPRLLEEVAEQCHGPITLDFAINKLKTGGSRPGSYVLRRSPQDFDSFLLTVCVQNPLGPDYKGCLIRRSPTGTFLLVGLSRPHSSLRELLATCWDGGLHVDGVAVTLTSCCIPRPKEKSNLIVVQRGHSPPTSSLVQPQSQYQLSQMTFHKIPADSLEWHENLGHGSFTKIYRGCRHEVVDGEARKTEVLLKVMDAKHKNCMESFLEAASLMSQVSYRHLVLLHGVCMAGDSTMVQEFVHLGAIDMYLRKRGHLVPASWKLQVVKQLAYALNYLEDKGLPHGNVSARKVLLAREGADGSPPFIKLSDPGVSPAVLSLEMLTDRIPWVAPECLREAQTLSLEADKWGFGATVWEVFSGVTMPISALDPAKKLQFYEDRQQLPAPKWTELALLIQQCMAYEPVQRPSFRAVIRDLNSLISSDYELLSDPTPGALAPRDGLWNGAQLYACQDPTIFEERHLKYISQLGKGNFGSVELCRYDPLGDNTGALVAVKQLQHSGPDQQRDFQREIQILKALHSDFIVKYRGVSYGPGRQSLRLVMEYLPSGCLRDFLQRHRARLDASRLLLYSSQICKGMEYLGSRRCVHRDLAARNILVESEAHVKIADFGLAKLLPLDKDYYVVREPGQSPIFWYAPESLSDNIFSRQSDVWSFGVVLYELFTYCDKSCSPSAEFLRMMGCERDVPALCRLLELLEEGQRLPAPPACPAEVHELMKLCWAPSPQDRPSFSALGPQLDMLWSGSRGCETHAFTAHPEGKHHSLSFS
JAK1, sequence (P23458 whole entry): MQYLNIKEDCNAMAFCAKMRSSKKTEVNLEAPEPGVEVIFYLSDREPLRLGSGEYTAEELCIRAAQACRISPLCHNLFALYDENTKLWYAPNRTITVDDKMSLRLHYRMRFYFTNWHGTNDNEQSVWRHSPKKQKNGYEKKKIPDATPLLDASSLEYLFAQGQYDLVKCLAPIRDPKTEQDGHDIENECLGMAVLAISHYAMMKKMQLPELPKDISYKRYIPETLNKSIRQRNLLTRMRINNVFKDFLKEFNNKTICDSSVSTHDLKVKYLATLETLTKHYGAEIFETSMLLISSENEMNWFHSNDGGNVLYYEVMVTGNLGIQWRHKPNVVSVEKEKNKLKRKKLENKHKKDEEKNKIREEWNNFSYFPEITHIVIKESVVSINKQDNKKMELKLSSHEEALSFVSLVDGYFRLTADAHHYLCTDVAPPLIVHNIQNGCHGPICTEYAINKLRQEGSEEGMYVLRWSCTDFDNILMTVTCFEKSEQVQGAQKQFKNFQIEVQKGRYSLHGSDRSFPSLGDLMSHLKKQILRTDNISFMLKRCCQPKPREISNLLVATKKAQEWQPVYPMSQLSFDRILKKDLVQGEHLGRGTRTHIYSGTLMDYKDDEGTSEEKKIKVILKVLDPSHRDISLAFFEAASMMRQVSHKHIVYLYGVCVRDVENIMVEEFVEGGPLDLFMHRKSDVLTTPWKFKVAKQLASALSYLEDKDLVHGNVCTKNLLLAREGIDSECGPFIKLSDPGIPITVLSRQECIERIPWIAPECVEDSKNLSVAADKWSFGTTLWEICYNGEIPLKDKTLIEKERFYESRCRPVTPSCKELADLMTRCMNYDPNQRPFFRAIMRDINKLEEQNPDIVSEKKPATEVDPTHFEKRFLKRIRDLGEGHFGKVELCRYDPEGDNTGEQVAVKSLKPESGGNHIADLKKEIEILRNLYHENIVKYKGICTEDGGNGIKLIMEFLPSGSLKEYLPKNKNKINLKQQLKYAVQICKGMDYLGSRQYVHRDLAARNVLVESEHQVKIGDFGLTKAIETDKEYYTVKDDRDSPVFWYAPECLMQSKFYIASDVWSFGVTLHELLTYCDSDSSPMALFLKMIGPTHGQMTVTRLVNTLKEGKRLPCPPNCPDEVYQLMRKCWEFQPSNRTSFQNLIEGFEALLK

In the case of `CCc1nsc(NC(=O)N2C[C@H]3C[C@H](N(C)c4c(C#N)cnc5[nH]ccc45)C[C@H]3C2)n1` [Compound H08, (3aR,5s,6aS)-4-({2-[(3-ethyl-1,2,4-thiadiazole-5-yl)carbamoyl]-hexahydrocyclopenta[c]pyrrole-5-yl}-methyl-amino)-1H-pyrrolo[2,3-b]pyridin-5-carbonitrile], the half-maximal inhibitory concentration (IC50) at JAK3 worked out at 63 nM; at JAK2, 3 nM; on JAK1 it was 0.39 nM; in the assay on TF-1 cell, 1.3 µM; with Blast T cell, 0.026 µM. Further, on JAK1, the JAK2/JAK1 worked out at 7.69.
`COCCOC1CCCN(S(=O)(=O)C[C@H]2CC[C@@H](N(C)c3c(C#N)cnc4[nH]ccc34)C2)C1` (stereo partly shown) [Compound H70]: the concentration for half-maximal inhibition (IC50) at JAK3 came to 47 nM; against JAK2, 13.9 nM; against JAK1, 6.7 nM; in the assay on TF-1 cell it was 1.53 µM; in the assay on Blast T cell it was 0.048 µM. Further, the JAK2/JAK1 at JAK1 is reported as 2.07.
`CN(c1c(C#N)cnc2[nH]ccc12)[C@H]1C[C@@H]2CN(C(=O)Nc3nc(C4CC4)ns3)C[C@@H]2C1` [Compound H26, (3aR,5s,6aS)-5-((5-cyano-1H-pyrrolo[2,3-b]pyridin-4-yl)(methyl)amino)-N-(3-cyclopropyl-1,2,4-thiadiazole-5-yl)hexahydrocyclopentadiene[c]pyrrole-2(1H)-carboxamide]: the IC50 at JAK3 amounted to 101 nM; against JAK2 it was 18 nM; against JAK1, 2.6 nM; with TF-1 cell it was 1.98 µM; with Blast T cell it was 0.027 µM. The JAK2/JAK1 on JAK1 turned out to be 6.92.
Turning to `COc1nsc(NC(=O)N2C[C@H]3C[C@H](Nc4c(C(F)(F)F)cnc5[nH]ccc45)C[C@H]3C2)n1` [Compound H50, (3aR,5s,6aS)-5-((5-trifluoromethyl-1H-pyrrolo[2,3-b]pyridin-4-yl)amino)-N-(3-methoxy-1,2,4-thiadiazole-5-yl)hexahydrocyclopentadiene[c]pyrrole-2(1H)-carboxamide], the IC50 against JAK3 was determined as 137 nM; at JAK2 it was 33 nM; against JAK1 it was 4.65 nM; in the assay on TF-1 cell, 0.85 µM; with Blast T cell it was 0.034 µM.
For the molecule `C[C@@H]1CN(C(=O)NCC(F)(F)F)C[C@@H]1Nc1c(C#N)cnc2[nH]ccc12` [Compound H40], the concentration for half-maximal inhibition (IC50) is 144 nM against JAK3; 15.6 nM against JAK2; 2.6 nM on JAK1; 1.24 µM with TF-1 cell; 0.036 µM in the assay on Blast T cell. On JAK1, the JAK2/JAK1 turned out to be 6.00.
On to `CC[C@@H]1CN(C(=O)NCC(F)(F)F)C[C@@H]1Nc1c(C(F)(F)F)cnc2[nH]ccc12` (relative stereo) [Compound H92, (cis)-3-ethyl-N-(2,2,2-trifluoroethyl)-4-((5-(trifluoromethyl)-1H-pyrrolo[2,3-b]pyridin-4-yl)amino)pyrrolidin-1-carboxamide], for which the IC50 came out at 258 nM at JAK3; 14.9 nM at JAK2; 8.21 nM on JAK1; 0.91 µM with TF-1 cell; 0.027 µM with Blast T cell. The JAK2/JAK1 on JAK1 is on record as 1.81.
In the case of `CC[C@@H]1CN(C(=O)CC(F)(F)F)C[C@@H]1N(C)c1c(C#N)cnc2[nH]ccc12` (relative stereo) [Compound H03, (cis)-4-{[4-ethyl-1-(3,3,3-trifluoropropionyl)pyrrolidin-3-yl]-methyl-amino}-1H-pyrrolo[2,3-b]pyridin-5-carbonitrile], the half-maximal inhibitory concentration (IC50) was determined as 133 nM against JAK3; 22 nM against JAK2; 2.86 nM at JAK1; 0.76 µM with TF-1 cell; 0.027 µM in the assay with Blast T cell. Besides, the JAK2/JAK1 on JAK1 was determined as 7.69.
Consider `CC[C@@H]1CN(C(=O)NC(C)C(C)C)C[C@@H]1Nc1c(C#N)cnc2[nH]ccc12` (relative stereo) [Compound H85, (cis)-3-((5-cyano-1H-pyrrolo[2,3-b]pyridin-4-yl)amino)-4-ethyl-N-(3-methylbutane-2-yl) pyrrolidin-1-carboxamide], for which the concentration for half-maximal inhibition (IC50) at JAK3 is 48 nM; at JAK2, 15.7 nM; on JAK1 it was 5.47 nM; in the assay on TF-1 cell, 1.47 µM; in the assay on Blast T cell, 0.032 µM. Moreover, on JAK1, the JAK2/JAK1 came out at 2.86.
Consider `CNc1nsc(NC(=O)N2C[C@H]3C[C@H](N(C)c4c(C#N)cnc5[nH]ccc45)C[C@H]3C2)n1` [Compound H41, (3aR,5s,6aS)-5-((5-cyano-1H-pyrrolo[2,3-b]pyridin-4-yl)(methyl)amino)-N-(3-(methylamino)-1,2,4-thiadiazole-5-yl)hexahydrocyclopentadiene[c]pyrrole-2(1H)-carboxamide], for which the IC50 in the assay with TF-1 cell was found to be 1.64 µM; in the assay with Blast T cell, 0.055 µM.
For the molecule `CN(c1c(C#N)cnc2[nH]ccc12)[C@H]1CC[C@H](CS(=O)(=O)N2CCC(C)(O)C2)CC1` (stereo partly shown) [Compound H62], the IC50 on JAK3 was 40 nM; at JAK2 it was 16 nM; at JAK1, 5.8 nM; in the assay on TF-1 cell, 1.32 µM; in the assay with Blast T cell, 0.029 µM. Moreover, at JAK1, the JAK2/JAK1 came out at 2.76.
With `COc1noc(NC(=O)N2C[C@H]3C[C@H](N(C)c4c(C#N)cnc5[nH]ccc45)C[C@H]3C2)n1` [Compound H43, (3aR,5s,6aS)-5-((5-cyano-1H-pyrrolo[2,3-b]pyridin-4-yl)(methyl)amino)-N-(3-methoxy-1,2,4-oxadiazole-5-yl)hexahydrocyclopentadiene[c]pyrrole-2(1H)-carboxamide], the IC50 at JAK3 is 125 nM; against JAK2, 20 nM; on JAK1 it was 2.4 nM; in the assay on TF-1 cell, 1.44 µM; in the assay on Blast T cell, 0.043 µM. Besides, on JAK1, the JAK2/JAK1 was found to be 8.33.
Turning to `CN(c1c(C#N)cnc2[nH]ccc12)[C@H]1C[C@@H](NS(=O)(=O)c2cccc3nonc23)C1` [Compound H18, (cis)-4-{[3-(benzo[c][1,2,5]oxadiazole-4-sulfonamido)-cyclobutyl-1-yl]-methyl-amino}-1H-pyrrolo[2,3-b]pyridin-5-carbonitrile], the IC50 is 40 nM at JAK3; 5.7 nM on JAK2; 0.65 nM against JAK1; 1.56 µM in the assay on TF-1 cell; 0.04 µM with Blast T cell.
In the case of `N#Cc1cnc2[nH]ccc2c1N[C@H]1C[C@@H](NS(=O)(=O)c2cccc3nonc23)C1` [Compound H19, (cis)-4-{[3-(benzo[c][1,2,5]oxadiazole-4-sulfonamido)-cyclobutyl-1-yl]-amino}-1H-pyrrolo[2,3-b]pyridin-5-carbonitrile], the figures for the half-inhibitory concentration (IC50) in the assay with TF-1 cell and in the assay on Blast T cell were 2.3 µM and 0.024 µM, respectively.
In the case of `CN(c1c(C#N)cnc2[nH]ccc12)[C@H]1C[C@@H](NS(=O)(=O)c2cccc(C(F)(F)F)c2)C1` [Compound H09, 4-{[3-(3-(trifluoromethyl)benzenesulfonamido)-cyclobutyl-1-yl]-methyl-amino}-1H-pyrrolo[2,3-b]pyridin-5-carbonitrile], the IC50 against JAK3 was 156 nM; against JAK2, 26.5 nM; against JAK1 it was 3.86 nM; in the assay on TF-1 cell, 1.56 µM; with Blast T cell, 0.036 µM.
